# From BindingDB's records for doi:10.1021/jm060168g (Wyeth Research, 2006)
# Biological target: Huh7 (Homo sapiens)
# Experiment: Cytotoxicity against human Huh7 cell line containing HCV genotype 1b replicon
smiles,measurement,value
"O=C(O)[C@@H]1CCCN1S(=O)(=O)c1cc(Cl)c(Cl)c(Cl)c1O [(S)-1-(3,4,5-trichloro-2-hydroxyphenylsulfonyl)pyrrolidine-2-carboxylic acid]",IC50,> 100 µM
